Results as given in patent US10342779B2 (Therapicon S.R.L., priority 2014, dated 2019).
Like-named read-outs stand apart in the source and are kept apart here.

Experiments:
[1] = cited from earlier work
[2] = dog, intravenous 3 mg/kg; cited from earlier work
[3] = dogs, oral 10 mg/kg; cited from earlier work
[4] = cited from earlier work; remark: listed apart in the source
[5] = system: mouse-adapted DENV-2 strain D2S10; settings: for Survival at day 20: IV, 19 days after challenge
[6] = man, intravenous administration; cited from earlier work
[7] = rat, injected 5 mg/kg; cited from earlier work
[8] = monkey, intravenous 3 mg/kg; cited from earlier work
[9] = monkeys, oral 10 mg/kg; cited from earlier work
[10] = rats, oral 10 mg/kg; cited from earlier work
[11] = biological target: T1, CYP1A2 (Homo sapiens, UniProt P05177); settings: cited from earlier work
T1 sequence (P05177 1-516): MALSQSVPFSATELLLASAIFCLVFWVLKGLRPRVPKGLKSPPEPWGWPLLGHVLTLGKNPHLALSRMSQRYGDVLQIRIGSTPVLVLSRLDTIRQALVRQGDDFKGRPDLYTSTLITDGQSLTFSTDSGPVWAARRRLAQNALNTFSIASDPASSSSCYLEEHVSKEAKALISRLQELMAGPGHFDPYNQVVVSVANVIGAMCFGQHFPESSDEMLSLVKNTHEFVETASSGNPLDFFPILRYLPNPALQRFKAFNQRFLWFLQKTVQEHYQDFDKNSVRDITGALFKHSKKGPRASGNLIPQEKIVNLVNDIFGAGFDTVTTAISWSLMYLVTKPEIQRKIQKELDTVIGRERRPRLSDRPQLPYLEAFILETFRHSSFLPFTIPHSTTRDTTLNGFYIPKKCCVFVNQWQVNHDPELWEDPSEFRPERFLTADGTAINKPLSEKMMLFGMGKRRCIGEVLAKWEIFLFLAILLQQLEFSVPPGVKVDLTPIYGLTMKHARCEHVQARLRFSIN

Q: With `COc1ccc2[nH]cc(CCNC(C)=O)c2c1` [Melatonin, N-acetyl-5-methoxytryptamine] as the compound, how does the solubility in water [1] read?
A: Its solubility in water is 1200 to 2400 µg/mL.

Q: And the apparent elimination half-life [2]?
A: Its apparent elimination half-life is 18.6 min.

Q: And the absolute bioavailability [3]?
A: The absolute bioavailability was “high”.

Q: What about the “median (range) elimination half life” value ([4]; healthy volunteers, oral capsules 20, 30, 50, 100 mg, across all doses) of the same compound?
A: The value was 51.7 (29.5-63.2) minutes.

Q: And the “unchanged melatonin renal clearance” value ([4]; human)?
A: The value was “lower than 1%”.

Q: And the “time of rapid decrease in serum melatonin” value ([4]; oral 3 mg/volunteer)?
A: The value was 240 min.

Q: What about the “time to increase in serum melatonin after oral administration” value ([4]; oral 3 mg/volunteer) of the same compound?
A: Its value is no more than 20 min.

Q: What about the half-life in blood ([4]; oral 100 mg) of the same compound?
A: The half-life in blood was “around 41 minutes”.

Q: What about the “time to maximum blood and saliva concentrations” value ([4]; oral 100 mg) of the same compound?
A: Its value is 60 min.

Q: And the AUC ([4]; oral capsules 20 mg)?
A: Its AUC is 1102 to 13616 ng/mL/min.

Q: What about the AUC ([4]; oral capsules 30 mg) of the same compound?
A: Its AUC is 822 to 2491 ng/mL/min.

Q: What about the AUC ([4]; oral capsules 50 mg) of the same compound?
A: The AUC was 1812 to 8915 ng/mL/min.

Q: What about the AUC ([4]; oral capsules 100 mg) of the same compound?
A: Its AUC is 4458 to 18229 ng/mL/min.

Q: What about the “absolute human bioavailability, average” value ([4]; oral, female) of the same compound?
A: Its value is 8.6%.

Q: What about the “absolute human bioavailability, average” value ([4]; oral, male) of the same compound?
A: The value was 16.8%.

Q: And the “absolute human bioavailability, range” value ([4]; oral)?
A: Its value is 1-37%.

Q: And the “inter-subject variation of AUC of individual subjects” value ([4]; oral)?
A: The value was “up to 25 times”.

Q: And the “Survival at day 20” value ([5]; 75 mg/kg body weight)?
A: The value was 4/6.

Q: And the “Survival at day 20” value ([5]; 100 mg/kg body weight)?
A: Its value is 6/6.

Q: And the “Survival at day 20” value ([5]; 150 mg/kg body weight)?
A: Its value is 6/6.

Q: And the “protection effects versus Dengue virus induced condition” value ([5]; 100 and 150 mg/Kg/day, 19 days treatment)?
A: The value was “Complete survival”.

Q: And the elimination half-life [6]?
A: Its elimination half-life is “about 40 minutes”.

Q: What about the apparent elimination half-life [7] of the same compound?
A: The apparent elimination half-life was 19.8 min.

Q: And the apparent elimination half-life [8]?
A: Its apparent elimination half-life is 33.9 min.

Q: What about the absolute bioavailability [9] of the same compound?
A: Its absolute bioavailability is “high”.

Q: What about the absolute bioavailability [10] of the same compound?
A: Its absolute bioavailability is “moderate”.

Q: What about the “enzyme mediating 6-hydroxylation and O-demethylation” value [11] of the same compound?
A: The value was “mainly CYP1A2 mediated”.
